The results in this text go back to US8481553B2, “Antimetastatic compounds” (Brigham Young University, priority 2010, dated 2013).

Structures are written as SMILES.

One experiment deals with MDCK cells. Description: HGF-induced epithelial-mesenchymal transition / migration of MDCK cells on transwell filters (crystal violet densitometry). It is filed as cell-based. Conditions: Canis lupus familiaris, MDCK; test compound 10 μM, then HGF, 24 hours; percentage value like the untreated controls (unstimulated cells = maximal effect, HGF treated cells without compound = nil effect). As for the experimental part: MDCK cells were seeded at confluency into the wells of a transwell filter in DMEM with 10% fetal bovine serum. Cells were cultured for 24 hours. Test compounds, dissolved in DMSO, were added to each test well to a 10 μM final concentration, and then hepatocyte growth factor (HGF) was then added. The MDCK cells were cultured for 24 hours. Concurrently, controls treated with and without HGF and with no test compounds were also prepared.
After post-HGF addition culturing, transwell filters were prepared by repeated washing using ice cold PBS. The cells were then fixed with paraformaldehyde (3.7%) on ice for 15 minutes to the filters. After fixation, the transwell filters were washed repeatedly with PBS followed by staining with crystal violet for 15 minutes. The transwell filters were washed again with distilled water.
The upper surface of the transwell filters were swabbed using a cotton-tipped probe. The filters were photographed using a gel documentation system. Densitometry measurements were made on the test samples and compared with control samples.
Usually inhibition stands for the change of the read-out against control, counted positive when it falls. Read a high inhibition as strong suppression. Turning to `CCc1ccc(/C=C/c2ccc3cccc(O)c3n2)cc1` [Compound B-26], the inhibition at 10 µM is 81.1%. As for `N#Cc1ccccc1OCC(=O)N/N=C/c1ccccc1O` [Compound 5], testing at 10 µM gave an inhibition of 41.1%.

With `COc1cc(/C=C/c2ccc3cccc(OC)c3n2)cc(OC)c1OC` [Compound B-1], the inhibition at 10 µM was found to be 96.8%. Still for that read-out and setting: then `O=c1[nH]c(SC/C=C/c2ccccc2)nc2sc3c(c12)CCCC3` [Compound A-13], with 90.5%. Consider `CCOc1ccccc1OCC(=O)N/N=C/c1ccc(O)cc1O` [Compound 4], for which 10 µM produced 32.3% inhibition.

Molecule `C=CCc1ccccc1OCC(=O)N/N=C/c1cccc(Oc2ccccc2)c1` [Compound 3] came in with an inhibition at 10 µM of 70.9%. On the same count and under the same terms, the result for `COc1cccc2ccc(/C=C/c3cc(I)ccc3OC(C)=O)nc12` [Compound B-21] reads 72.5%; that for `Oc1c(Br)cc(Cl)cc1/C=C/c1ccc2cccc(O)c2n1` [Compound B-27], 100%; that for `CCOc1cc(/C=C/c2ccc3cccc(O)c3n2)ccc1OC` [Compound B-2], above 5%. In turn, `COc1cc(/C=C/c2ccc3cccc(O)c3n2)cc(OC)c1OC` [Compound B-35] had an inhibition at 10 µM below 5%. On the same count and under the same terms, then `COc1cc(Br)cc(/C=C/c2ccc3cccc(OC)c3n2)c1OC` [Compound B-23], with 72.8%.

`Oc1cccc2ccc(/C=C/c3ccc(Cl)c(Cl)c3)nc12` [Compound B-8] displayed an inhibition at 10 µM above 5%. As for `O=C(O)CCc1nc2sc3c(c2c(=O)[nH]1)CCCC3` [Compound A-12], at 10 µM the inhibition was 100%. With `N#Cc1ccccc1OCC(=O)N/N=C/c1ccc(Cl)cc1` [Compound 7], the inhibition at 10 µM was found to be 86.8%. `N#Cc1ccccc1OCC(=O)N/N=C/c1ccc([N+](=O)[O-])cc1` [Compound 11] returned an inhibition at 10 µM of 83.7%.

`COc1cccc2ccc(/C=C/c3cccc([N+](=O)[O-])c3)nc12` [Compound B-20] had an inhibition at 10 µM of 92.4%. For `CCc1ccccc1OCC(=O)N/N=C/c1ccc(Br)cc1` [Compound 14], 10 µM produced 100% inhibition.

`CCOc1cccc(/C=C/c2ccc3cccc(OC)c3n2)c1OC(C)=O` [Compound B-15] yielded an inhibition at 10 µM of 53.1%. The same measure, in the same setting: then `CCOc1cccc(/C=C/c2ccc3cccc(OC)c3n2)c1` [Compound B-10], with 76.1%; and `COc1cc(/C=C/c2ccc3cccc(OC(C)=O)c3n2)ccc1O` [Compound B-29], with 94.2%. `N#Cc1ccccc1OCC(=O)N/N=C/c1ccc(Cl)cc1Cl` [Compound 8] returned an inhibition at 10 µM of 55.1%. Still for that read-out and setting: the result for `COc1ccc(/C=C/c2ccc3cccc(OC)c3n2)cc1Cl` [Compound B-6] reads above 5%. The same measure, in the same setting: then `CC(C)Oc1ccc(/C=C/c2ccc3cccc(O)c3n2)cc1` [Compound B-31], with 100%; and `CCC(=O)Oc1c(OC)cc(/C=C/c2ccc3cccc(OC(=O)CC)c3n2)cc1OC` [Compound B-24], with 98.1%; and `N#Cc1ccccc1OCC(=O)N/N=C/c1ccccc1` [Compound 6], with 44.2%. With `COc1cc(/C=C/c2ccc3cccc(OCc4ccccc4Cl)c3n2)cc(OC)c1OC` [Compound B-17], the inhibition at 10 µM is 100%. `C=CCOc1ccccc1/C=N/NC(=O)COc1ccccc1CC=C` [Compound 9] gave an inhibition at 10 µM of 49.5%.

Turning to `O=C1c2cccc3cccc(c23)C(=O)N1CCCc1nc2sc3c(c2c(=O)[nH]1)CCCC3` [Compound A-16], the inhibition at 10 µM is 70.1%. Same read-out and setting: then `COc1cccc2ccc(/C=C/c3ccc(Br)cc3)nc12` [Compound B-11], with 61.4%. The same measure, in the same setting: the result for `O=c1[nH]c(/C=C/c2ccccc2)nc2sc3c(c12)CCCC3` [Compound A-4] reads 90.8%; that for `N#Cc1ccccc1OCC(=O)N/N=C/c1c(Cl)cccc1Cl` [Compound 13], 86%. Still for that read-out and setting: the result for `COc1cc(Cl)cc(/C=C/c2ccc3cccc(O)c3n2)c1OC` [Compound B-28] reads 100%; that for `COc1cc(OC)c(OC)cc1/C=C/c1ccc2cccc(OC)c2n1` [Compound B-12], 50.6%; that for `CCOc1cc(/C=C/c2ccc3cccc(OC(=O)CC)c3n2)cc(Br)c1OC` [Compound B-13], 62.2%. In turn, `Cc1noc(C)c1CSc1nc2sc3c(c2c(=O)n1-c1ccccc1)CCCC3` [Compound A-7] gave an inhibition at 10 µM of 31.3%.

As to `COc1cc(/C=C/c2ccc3cccc(OCc4ccccc4)c3n2)ccc1OC(C)=O` [Compound B-18], 10 µM produced 100% inhibition. Molecule `COc1ccc(/C=C/c2ccc3cccc(O)c3n2)cc1C` [Compound B-33] showed an inhibition at 10 µM of 90.7%. `O=c1[nH]c(CCc2ccccc2)nc2sc3c(c12)CCCC3` [Compound A-1] returned an inhibition at 10 µM of 96.9%.

For the molecule `COc1cc(/C=C/c2ccc3cccc(OCc4ccc(Cl)cc4)c3n2)cc(OC)c1OC(C)=O` [Compound B-25], 10 µM produced 78.8% inhibition.

Molecule `C=CCc1ccccc1OCC(=O)N/N=C/c1ccc(C)cc1C` [Compound 1] yielded an inhibition at 10 µM of 97%. `COc1cc(/C=C/c2ccc3cccc(O)c3n2)cc(OC)c1O` [Compound B-36]: the inhibition at 10 µM is below 5%.

Staying with this experiment, now noted: test compound 10 μM, then HGF, 24 hours; percentage value like the untreated controls (unstimulated cells = maximal effect, HGF treated cells without compound = nil effect).
With `COc1ccccc1OCC(=O)N/N=C/c1ccc(Cl)cc1` [Compound 33], the “Assay Value” is below 5%. As for `COc1ccccc1/C=N/NC(=O)COc1c(C)cc(C)cc1C` [Compound 18], the “Assay Value” is listed as below 5%. The same measure, in the same setting: the result for `Cc1cc(C)c(OCC(=O)N/N=C/c2ccccc2)c(C)c1` [Compound 17] reads below 5%. On the same count and under the same terms, the result for `O=C(COc1ccc(Br)cc1)N/N=C/c1ccc(Cl)cc1` [Compound 38] reads below 5%; that for `O=C(COc1ccc2ccccc2c1)N/N=C/c1ccccc1` [Compound 31], below 5%. Same read-out and setting: then `Oc1cccc2ccc(/C=C/c3ccc(OC4CCCC4)cc3)nc12` [Compound B-16], with 100%; and `COc1ccc(/C=N/NC(=O)COc2ccccc2C)cc1` [Compound 19], with below 5%; and `O=C(COc1ccc2ccccc2c1)N/N=C/c1ccccc1Br` [Compound 30], with below 5%. Take `Cc1ccc(/C=N/NC(=O)COc2cccc(Br)c2)c(C)c1` [Compound 36]: the “Assay Value” is below 5%. `Cc1ccc(/C=N/NC(=O)COc2ccccc2Br)c(C)c1` [Compound 34]: the “Assay Value” was below 5%. In the case of `COc1ccccc1/C=N/NC(=O)COc1ccccc1OC` [Compound 32], the “Assay Value” is given as below 5%.

Consider `Cc1ccc(OCC(=O)N/N=C/c2ccccc2)cc1` [Compound 20], for which the “Assay Value” was below 5%. On to `CC1CCc2c(sc3nc(SCC(=O)N4CCOCC4)n(Cc4ccccc4)c(=O)c23)C1` (stereo not shown) [Compound A-20], for which the “Assay Value” is listed as below 5%. For the molecule `O=C(COc1ccccc1Br)N/N=C/c1ccccc1Br` [Compound 37], the “Assay Value” is reported as below 5%. For `Cc1cc(C)c(/C=N/NC(=O)COc2ccccc2)c(C)c1` [Compound 21], the “Assay Value” is given as below 5%. Consider `Cc1cccc(OCC(=O)N/N=C/c2ccc(O)cc2)c1C` [Compound 23], for which the “Assay Value” is below 5%.

Take `Cc1ccc(C)c(OCC(=O)N/N=C/c2ccc(CC(=O)O)cc2)c1C` [Compound 25]: the “Assay Value” is given as below 5%.
